Here are results for 68 sequences from the supplement of paper PMC11208160.
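Also: IS621 bridge recombinase in Escherichia coli cells against a fixed T5 target plasmid.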

The data set can be described thus: recombinant UMI read abundance after kanamycin selection (control-corrected) (log10(CPM+1)); higher = more efficient recombination; extreme values may be limits of the assay; sequences stand for … in AGTGCAGAGAAAATCGGCCAGTTTTCTCTGCCTGCAGTCCGCATGCCGTGGGACCCCTTGGGTTCTAACCTGTTGCCTAGATTTATGCAGCGGACTGCCTTTCTCCCAAAGTGATAAACCGG…AGGTTGGTTTCACT; site = the 11-nt donor. Summed up: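 After plating on IPTG (0.07 mM) plus kanamycin, or unselected, in two replicates, recombinant UMIs were PCR-amplified across the donor–target junction and sequenced. The cells were Escherichia coli co-electroporated with a UMI-tagged donor and donor-binding-loop pair library and a target plasmid with a fixed target and T7-inducible IS621 bridge recombinase. Values are log10(CPM+1), with CPM averaged over replicates and scaled by control-derived factors.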
For “GTAAAATCATGGACCGGTTTTCCCGGTAATCCGTATTTGCA (site GTAAAATCTTG)”, the “recombinant UMI read abundance (log10)” value came out at 1.81.
In the case of “GTAAAGACATGGACCGGTTTTCCCGGTAATCCGTATTTGGG (site GTAAAGACTCC)”, the “recombinant UMI read abundance (log10)” value came out at 0.889.
Consider “GTAACGCCATGGACCGGTTTTCCCGGTAATCCGTATTTGTC (site GTAACGCCTGA)”, for which the “recombinant UMI read abundance (log10)” value is 0.
Then “GTAAGTTCATGGACCGGTTTTCCCGGTAATCCGTATTTGTC (site GTAAGTTCTGA)”, with 2.1; and “GTACAAGCATGGACCGGTTTTCCCGGTAATCCGTATTTGCA (site GTACAAGCTTG)”, with 2.69; and “GTACCCACATGGACCGGTTTTCCCGGTAATCCGTATTTGTC (site GTACCCACTGA)”, with 2.64.
“GTACCTTCATGGACCGGTTTTCCCGGTAATCCGTATTTGAC (site GTACCTTCTGT)”: the “recombinant UMI read abundance (log10)” value came to 2.06.
As to “GTACGCACATGGACCGGTTTTCCCGGTAATCCGTATTTGTA (site GTAAGCACTTA)”, the “recombinant UMI read abundance (log10)” value amounted to 0.0204.
Next, “GTACGCACATGGACCGGTTTTCCCGGTAATCCGTATTTGTA (site GTACGCACTTA)”: 2.17; “GTACGCACATGGACCGGTTTTCCCGGTAATCCGTATTTGTA (site GTAGGCACTTA)”: 0.0167.
Take “GTACGCACATGGACCGGTTTTCCCGGTAATCCGTATTTGTA (site GTATGCACTTA)”: the “recombinant UMI read abundance (log10)” value was determined as 0.266.
Next, “GTACTTCCATGGACCGGTTTTCCCGGTAATCCGTATTTGCT (site GTACTTCCTAG)”: 1.14.
As for “GTAGCCGCATGGACCGGTTTTCCCGGTAATCCGTATTTGCG (site GTAGACGCTCG)”, the “recombinant UMI read abundance (log10)” value turned out to be 0.446.
Take “GTAGCCGCATGGACCGGTTTTCCCGGTAATCCGTATTTGCG (site GTAGCCGCTCG)”: the “recombinant UMI read abundance (log10)” value was found to be 2.08.
Consider “GTAGCCGCATGGACCGGTTTTCCCGGTAATCCGTATTTGCG (site GTAGGCGCTCG)”, for which the “recombinant UMI read abundance (log10)” value was 0.0284.
As to “GTAGCCGCATGGACCGGTTTTCCCGGTAATCCGTATTTGCG (site GTAGTCGCTCG)”, the “recombinant UMI read abundance (log10)” value stood at 0.781.
As for “GTAGCCTCATGGACCGGTTTTCCCGGTAATCCGTATTTGTT (site GTAGCCTCTAA)”, the “recombinant UMI read abundance (log10)” value amounted to 2.42.
As to “GTAGCGACATGGACCGGTTTTCCCGGTAATCCGTATTTGTC (site GTAGCGACTGA)”, the “recombinant UMI read abundance (log10)” value was found to be 2.92.
In the case of “GTAGCTACATGGACCGGTTTTCCCGGTAATCCGTATTTGAC (site GTAGATACTGT)”, the “recombinant UMI read abundance (log10)” value was determined as 1.02.
As to “GTAGCTACATGGACCGGTTTTCCCGGTAATCCGTATTTGAC (site GTAGCTACTGT)”, the “recombinant UMI read abundance (log10)” value was 2.4.
As to “GTAGCTACATGGACCGGTTTTCCCGGTAATCCGTATTTGAC (site GTAGGTACTGT)”, the “recombinant UMI read abundance (log10)” value was 0.
Then “GTAGCTACATGGACCGGTTTTCCCGGTAATCCGTATTTGAC (site GTAGTTACTGT)”, with 1.7.
In the case of “GTAGGCACATGGACCGGTTTTCCCGGTAATCCGTATTTGTA (site GTAAGCACTTA)”, the “recombinant UMI read abundance (log10)” value stood at 1.08.
With “GTAGGCACATGGACCGGTTTTCCCGGTAATCCGTATTTGTA (site GTACGCACTTA)”, the “recombinant UMI read abundance (log10)” value was found to be 0.279.
Then “GTAGGCACATGGACCGGTTTTCCCGGTAATCCGTATTTGTA (site GTAGGCACTTA)”, with 1.29.
“GTAGGCACATGGACCGGTTTTCCCGGTAATCCGTATTTGTA (site GTATGCACTTA)”: the “recombinant UMI read abundance (log10)” value was determined as 0.019.
On to “GTAGGCTCATGGACCGGTTTTCCCGGTAATCCGTATTTGCA (site GTAGGCTCTTG)”, for which the “recombinant UMI read abundance (log10)” value came out at 2.94.
Then “GTAGGTACATGGACCGGTTTTCCCGGTAATCCGTATTTGAA (site GTAGGTACTAT)”, with 0; and “GTAGGTACATGGACCGGTTTTCCCGGTAATCCGTATTTGAA (site GTAGGTACTCT)”, with 0.518; and “GTAGGTACATGGACCGGTTTTCCCGGTAATCCGTATTTGAA (site GTAGGTACTGT)”, with 0.479.
Regarding “GTAGGTACATGGACCGGTTTTCCCGGTAATCCGTATTTGAA (site GTAGGTACTTT)”, the “recombinant UMI read abundance (log10)” value stood at 1.75.
Then “GTAGGTACATGGACCGGTTTTCCCGGTAATCCGTATTTGCC (site GTAGGTACTGA)”, with 0.73; and “GTAGGTACATGGACCGGTTTTCCCGGTAATCCGTATTTGCC (site GTAGGTACTGC)”, with 0.00606.
For the sequence “GTAGGTACATGGACCGGTTTTCCCGGTAATCCGTATTTGCC (site GTAGGTACTGG)”, the “recombinant UMI read abundance (log10)” value was determined as 0.956.
Turning to “GTAGGTACATGGACCGGTTTTCCCGGTAATCCGTATTTGCC (site GTAGGTACTGT)”, the “recombinant UMI read abundance (log10)” value came to 0.441.
Regarding “GTAGGTGCATGGACCGGTTTTCCCGGTAATCCGTATTTGAC (site GTAGGTACTGT)”, the “recombinant UMI read abundance (log10)” value turned out to be 2.25.
As to “GTAGGTGCATGGACCGGTTTTCCCGGTAATCCGTATTTGAC (site GTAGGTCCTGT)”, the “recombinant UMI read abundance (log10)” value is 0.618.
Next, “GTAGGTGCATGGACCGGTTTTCCCGGTAATCCGTATTTGAC (site GTAGGTGCTGT)”: 2.74; “GTAGGTGCATGGACCGGTTTTCCCGGTAATCCGTATTTGAC (site GTAGGTTCTGT)”: 1.1.
With “GTAGTCGCATGGACCGGTTTTCCCGGTAATCCGTATTTGAG (site GTAGTCGCTCA)”, the “recombinant UMI read abundance (log10)” value was 0.017.
Consider “GTAGTCGCATGGACCGGTTTTCCCGGTAATCCGTATTTGAG (site GTAGTCGCTCC)”, for which the “recombinant UMI read abundance (log10)” value worked out at 0.924.
Then “GTAGTCGCATGGACCGGTTTTCCCGGTAATCCGTATTTGAG (site GTAGTCGCTCG)”, with 0.73.
As to “GTAGTCGCATGGACCGGTTTTCCCGGTAATCCGTATTTGAG (site GTAGTCGCTCT)”, the “recombinant UMI read abundance (log10)” value came out at 1.5.
Then “GTAGTCGCATGGACCGGTTTTCCCGGTAATCCGTATTTGCA (site GTAGTCGCTAG)”, with 0.762; and “GTAGTCGCATGGACCGGTTTTCCCGGTAATCCGTATTTGCA (site GTAGTCGCTCG)”, with 1.85.
In the case of “GTAGTCGCATGGACCGGTTTTCCCGGTAATCCGTATTTGCA (site GTAGTCGCTGG)”, the “recombinant UMI read abundance (log10)” value amounted to 0.873.
As to “GTAGTCGCATGGACCGGTTTTCCCGGTAATCCGTATTTGCA (site GTAGTCGCTTG)”, the “recombinant UMI read abundance (log10)” value stood at 2.68.
In the case of “GTAGTCGCATGGACCGGTTTTCCCGGTAATCCGTATTTGCC (site GTAGTCGCTAG)”, the “recombinant UMI read abundance (log10)” value came to 1.64.
Turning to “GTAGTCGCATGGACCGGTTTTCCCGGTAATCCGTATTTGCC (site GTAGTCGCTCG)”, the “recombinant UMI read abundance (log10)” value was found to be 0.819.
For “GTAGTCGCATGGACCGGTTTTCCCGGTAATCCGTATTTGCC (site GTAGTCGCTGG)”, the “recombinant UMI read abundance (log10)” value came out at 2.93.
Next, “GTAGTCGCATGGACCGGTTTTCCCGGTAATCCGTATTTGCC (site GTAGTCGCTTG)”: 2.39; “GTAGTCGCATGGACCGGTTTTCCCGGTAATCCGTATTTGTG (site GTAGTCGCTCA)”: 2.18; “GTAGTCGCATGGACCGGTTTTCCCGGTAATCCGTATTTGTG (site GTAGTCGCTCC)”: 0.438.
Next, “GTAGTCGCATGGACCGGTTTTCCCGGTAATCCGTATTTGTG (site GTAGTCGCTCG)”: 1.42; “GTAGTCGCATGGACCGGTTTTCCCGGTAATCCGTATTTGTG (site GTAGTCGCTCT)”: 1.05.
Then “GTAGTCTCATGGACCGGTTTTCCCGGTAATCCGTATTTGCG (site GTAGTCACTCG)”, with 1.31.
Consider “GTAGTCTCATGGACCGGTTTTCCCGGTAATCCGTATTTGCG (site GTAGTCCCTCG)”, for which the “recombinant UMI read abundance (log10)” value was 1.12.
For the sequence “GTAGTCTCATGGACCGGTTTTCCCGGTAATCCGTATTTGCG (site GTAGTCGCTCG)”, the “recombinant UMI read abundance (log10)” value came to 0.176.
In the case of “GTAGTCTCATGGACCGGTTTTCCCGGTAATCCGTATTTGCG (site GTAGTCTCTCG)”, the “recombinant UMI read abundance (log10)” value amounted to 3.
For the sequence “GTAGTTGCATGGACCGGTTTTCCCGGTAATCCGTATTTGCG (site GTAGTAGCTCG)”, the “recombinant UMI read abundance (log10)” value stood at 2.05.
Take “GTAGTTGCATGGACCGGTTTTCCCGGTAATCCGTATTTGCG (site GTAGTCGCTCG)”: the “recombinant UMI read abundance (log10)” value was 1.78.
Take “GTAGTTGCATGGACCGGTTTTCCCGGTAATCCGTATTTGCG (site GTAGTGGCTCG)”: the “recombinant UMI read abundance (log10)” value is 0.373.
Take “GTAGTTGCATGGACCGGTTTTCCCGGTAATCCGTATTTGCG (site GTAGTTGCTCG)”: the “recombinant UMI read abundance (log10)” value was found to be 2.88.
“GTATACACATGGACCGGTTTTCCCGGTAATCCGTATTTGTA (site GTATACACTTA)”: the “recombinant UMI read abundance (log10)” value was 2.12.
As for “GTATACACATGGACCGGTTTTCCCGGTAATCCGTATTTGTA (site GTATCCACTTA)”, the “recombinant UMI read abundance (log10)” value was 0.
Turning to “GTATACACATGGACCGGTTTTCCCGGTAATCCGTATTTGTA (site GTATGCACTTA)”, the “recombinant UMI read abundance (log10)” value was 0.0117.
With “GTATACACATGGACCGGTTTTCCCGGTAATCCGTATTTGTA (site GTATTCACTTA)”, the “recombinant UMI read abundance (log10)” value came out at 0.0042.
With “GTATAGACATGGACCGGTTTTCCCGGTAATCCGTATTTGCC (site GAATAGACTGG)”, the “recombinant UMI read abundance (log10)” value is 2.37.
